Test results reported in ChEMBL document CHEMBL1201862, “PubChem BioAssay data set” (2004).
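In this assay, cells in 96-well plates receive the compound at five concentrations for 48 hours. Endpoints are linearly interpolated between the surrounding concentrations. GI50 is the concentration that inhibits growth by half.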 Activity calls are given as the source filed them. Cut-off read from the data, not from the text of the source: active = GI50 up to about 1.1 µM and inactive = higher.

Key:
Test in all cases: NCI anticancer screen, dose series, 48 h
[1] = tested on: ACHN
[2] = tested on: CAKI-1
[3] = tested on: DU-145
[4] = tested on: HCT-116
[5] = tested on: HCT-15
[6] = tested on: HL-60
[7] = tested on: MDA-MB-231
[8] = tested on: MDA-MB-435
[9] = tested on: MDA-N
[10] = tested on: Malme-3M
[11] = tested on: OVCAR-5
[12] = tested on: RPMI-8226
[13] = tested on: SK-MEL-2
[14] = tested on: SNB-75
[15] = tested on: SR
[16] = tested on: SW-620
[17] = tested on: U-251
[18] = tested on: NCI-H522
[19] = tested on: OVCAR-4
[20] = tested on: HCC 2998

| Structure (SMILES) | GI50 [1] | GI50 [2] | GI50 [3] | GI50 [4] | GI50 [5] | GI50 [6] | GI50 [7] | GI50 [8] | GI50 [9] | GI50 [10] | GI50 [11] | GI50 [12] | GI50 [13] | GI50 [14] | GI50 [15] | GI50 [16] | GI50 [17] | GI50 [18] | GI50 [19] | GI50 [20] |
| --- | --- | --- | --- | --- | --- | --- | --- | --- | --- | --- | --- | --- | --- | --- | --- | --- | --- | --- | --- | --- |
| Oc1ccc2c(c1)-c1c(c3ccccc3n1CCN1CCOCC1)CC2 | 23.1 µM (inactive) | 32.6 µM (inactive) | 46 µM (inactive) | 31.4 µM (inactive) | 39.7 µM | > 100 µM (inactive) | > 100 µM (inactive) | 30.9 µM (inactive) | 33.7 µM (inactive) | 31.3 µM (inactive) | 23.9 µM (inactive) | > 100 µM (inactive) | 25 µM (inactive) | 27 µM (inactive) | > 100 µM (inactive) | > 10 µM (inactive) | 42.3 µM (inactive) |  |  |  |
| O=c1[nH]c(N/N=C\C(=N/Nc2nc3ccccc3c(=O)[nH]2)C(O)C(O)C(O)CO)nc2ccccc12 (centres undefined) | > 100 µM (inactive) | > 100 µM (inactive) | > 100 µM (inactive) | > 100 µM (inactive) | > 100 µM | > 100 µM (inactive) | > 100 µM (inactive) | > 100 µM (inactive) | > 100 µM (inactive) |  | > 100 µM (inactive) | > 100 µM (inactive) | > 100 µM (inactive) | > 100 µM (inactive) | > 100 µM (inactive) | > 100 µM (inactive) | > 100 µM (inactive) |  |  |  |
| O=C1N/N=C\c2ccc(cc2)OCc2cccc(n2)COc2ccc(cc2)/C=N\NC1=O | > 25 µM (inactive) |  | > 25 µM (inactive) | > 25 µM (inactive) | > 25 µM | > 25 µM (inactive) | > 25 µM (inactive) | > 25 µM (inactive) | > 25 µM (inactive) | > 25 µM (inactive) | > 25 µM (inactive) | > 25 µM (inactive) | > 25 µM (inactive) | 14.6 µM (inactive) | > 25 µM (inactive) | > 25 µM (inactive) | > 25 µM (inactive) | > 25 µM (inactive) | > 25 µM (inactive) |  |
| Cc1cc(C2(c3cc(C)c(O)c4ncccc34)OC(=O)c3ccccc32)c2cccnc2c1O | 0.00662 µM (active) | 0.00953 µM (active) | 0.0659 µM (active) | 0.00268 µM (active) | < 0.001 µM | 0.0247 µM (active) | 0.0692 µM (active) | 0.0682 µM (active) | 0.00925 µM (active) | 1 µM (active) | 11.3 µM (inactive) | 0.012 µM (active) | 0.262 µM (active) | 0.069 µM (active) |  | 0.0304 µM (active) | 0.0288 µM (active) | 0.01 µM (active) | 0.067 µM (active) | 0.0468 µM (active) |
| COc1ccc(C2SCC(=O)N2c2ccc(-c3ccc(-n4c(-c5ccccc5)nc5ccccc5c4=O)cc3)cc2)cc1OC (centres undefined) |  | 88.5 µM (inactive) | 98.2 µM (inactive) | 67.8 µM (inactive) | > 100 µM | 30.8 µM (inactive) | 25.8 µM (inactive) | 33.3 µM (inactive) | 59.7 µM (inactive) | 81.8 µM (inactive) |  | 31.7 µM (inactive) |  | 64.1 µM (inactive) | 26.2 µM (inactive) | 73.5 µM (inactive) | 43.8 µM (inactive) |  | > 100 µM (inactive) |  |
| CC1CC(Br)C(=O)O1 (centres undefined) | > 100 µM (inactive) | > 100 µM (inactive) | > 100 µM (inactive) | > 100 µM (inactive) | > 100 µM | > 100 µM (inactive) | > 100 µM (inactive) | > 100 µM (inactive) | > 100 µM (inactive) | > 100 µM (inactive) | > 100 µM (inactive) | 38.6 µM (inactive) | > 100 µM (inactive) | 70 µM (inactive) |  | > 100 µM (inactive) | > 100 µM (inactive) | > 100 µM (inactive) | > 100 µM (inactive) | > 100 µM (inactive) |
